# Like-named read-outs stand apart in the source and are kept apart here.
# How the values were obtained:
# [1] = system: MDA-MB-468 cells (target non-expressing); test: In vitro cell assay (MTS cell viability), MDA-MB-468; assay type: cell-based; conditions: Homo sapiens
# Experimental: Target expressing (BT474 (breast cancer), N87 (gastric cancer), HCC1954 (breast cancer), MDA-MB-361-DYT2 (breast cancer)) or non-expressing (MDA-MB-468) cells were seeded in 96-well cell culture plates for 24 hours before treatment. Cells were treated with 3-fold serially diluted antibody-drug conjugates or free compounds (i.e., no antibody conjugated to the drug) in duplicate at 10 concentrations. Cell viability was determined by CellTiter 96® AQueous One Solution Cell Proliferation MTS Assay (Promega, Madison Wis.) 96 hours after treatment. Relative cell viability was determined as percentage of untreated control. IC50 values were calculated using a four parameter logistic model #203 with XLfit v4.2 (IDBS, Guildford, Surry, UK). The potency ranged upward from 0.0002 nm. Similar procedures and techniques were employed.
# [2] = system: BT474 (breast cancer) cells; test: In vitro cell assay (MTS cell viability), BT474; assay type: cell-based; conditions: Homo sapiens, BT-474; free compounds (natural products and synthetic analogs); cell viability 96 hours after treatment
# Method in brief: (§1)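 Cells seeded 24 h, then treated with antibody-drug conjugates or free drug, 3-fold serial dilutions at 10 concentrations in duplicate. Viability by MTS at 96 h as percent of untreated control; IC50 from four-parameter logistic fit.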
# [3] = system: N87 (gastric cancer) cells; test: In vitro cell assay (MTS cell viability), N87; assay type: cell-based; conditions: free compounds (natural products and synthetic analogs), cell viability 96 hours after treatment
# Method in brief: as §1
# [4] = system: MDA-MB-361-DYT2 (breast cancer) cells; test: In vitro cell assay (MTS cell viability), MDA-MB-361-DYT2; assay type: cell-based; conditions: free compounds (natural products and synthetic analogs), cell viability 96 hours after treatment
# Method in brief: as §1
# xenograft tumor models = conditions: Journal of Antibiotics (1996), 49(12), 1204-1211; cited from earlier work
# human cancer cell lines = conditions: Journal of Antibiotics (1996), 49(12), 1204-1211; cited from earlier work
# [5] = system: spliceosome (SF3b, component of the subcomplex U2 snRNA); conditions: Nature Chemical Biology (2007), 3(9), 576-583; Nature (2010), 468(7324), 664-668; cited from earlier work
# [6] = MDA-MB-468, 96 h, read-out: MDA-MB-468 IC50 (nM)
Compound,"IC50 [1, 6] [nM]",IC50 [2] [µM],IC50 ([3]; 96 h) [µM],IC50 ([4]; 96 h) [µM],efficacies in xenograft tumor models (xenograft tumor models),inhibitory activities against human cancer cell lines (human cancer cell lines),other results
"CCCNC(=O)C(C)(C)NC(=O)C[C@@H]1C[C@@]2(CO2)[C@H](O)[C@@H](/C=C/C(C)=C/C[C@@H]2O[C@H](C)[C@H](NC(=O)/C=C\[C@H](C)OC(C)=O)C[C@@H]2C)O1 [#B81, (2S,3Z)-5-{[(2R,3R,5S,6S)-6-{(2E,4E)-5-[(3R,4R,5R,7S)-4-hydroxy-7-(2-{[2-methyl-1-oxo-1-(propylamino)propan-2-yl]amino}-2-oxoethyl)-1,6-dioxaspiro[2.5]oct-5-yl]-3-methylpenta-2,4-dien-1-yl}-2,5-dimethyltetrahydro-2H-pyran-3-yl]amino}-5-oxopent-3-en-2-yl acetate]",> 100,> 0.1,0.0707,> 0.1,,,
"COC(=O)C[C@@H]1C[C@@]2(CO2)C[C@@H](/C=C/C(C)=C/C[C@@H]2O[C@H](C)[C@H](NC(=O)/C=C\[C@H](C)O)C[C@@H]2C)O1 [#B148, methyl [(3S,5S,7S)-7-{(1E,3E)-5-[(2S,3S,5R,6R)-5-{[(2Z,4S)-4-hydroxypent-2-enoyl]amino}-3,6-dimethyltetrahydro-2H-pyran-2-yl]-3-methylpenta-1,3-dien-1-yl}-1,6-dioxaspiro[2.5]oct-5-yl]acetate]",64.4,0.0408,0.0474,> 0.1,,,
"CCCC(=O)NC[C@@H]1C[C@@]2(CO2)C[C@@H](/C=C/C(C)=C/C[C@@H]2O[C@H](C)[C@H](NC(=O)/C=C\[C@H](C)OC(C)=O)C[C@@H]2C)O1 [#B173, (2S,3Z)-5-({(2R,3R,5S,6S)-6-[(2E,4E)-5-{(3R,5S,7S)-7-[(butanoylamino)methyl]-1,6-dioxaspiro[2.5]oct-5-yl}-3-methylpenta-2,4-dien-1-yl]-2,5-dimethyltetrahydro-2H-pyran-3-yl}amino)-5-oxopent-3-en-2-yl acetate]",7.85,0.00364,0.00638,0.0291,,,
"CC(=O)O[C@@H](C)/C=C\C(=O)N[C@@H]1C[C@H](C)[C@H](C/C=C(C)/C=C/[C@H]2O[C@H](CC(=O)O)C[C@@]3(CO3)[C@@H]2O)O[C@@H]1C [#NP1, [(3R,5S,7R,8R)-7-{(1E,3E)-5-[(2S,3S,5R,6R)-5-{[(2Z,4S)-4-(acetyloxy)pent-2-enoyl]amino}-3,6-dimethyltetrahydro-2H-pyran-2-yl]-3-methylpenta-1,3-dien-1-yl}-8-hydroxy-1,6-dioxaspiro[2.5]oct-5-yl]acetic Acid]",142,0.145,0.0616,0.16,,,
"CC(=O)O[C@@H](C)/C=C\C(=O)N[C@@H]1C[C@H](C)[C@H](C/C=C(C)/C=C/[C@@H]2C[C@]3(CO3)C[C@@H](CC(=O)O)O2)O[C@@H]1C [#NP2, [(3S,5S,7S)-7-{(1E,3E)-5-[(2S,3S,5R,6R)-5-{[(2Z,4S)-4-(acetyloxy)pent-2-enoyl]amino}-3,6-dimethyltetrahydro-2H-pyran-2-yl]-3-methylpenta-1,3-dien-1-yl}-1,6-dioxaspiro[2.5]oct-5-yl]acetic acid]",,0.00512,,,,,"IC50 ([1]; MDA-MB-468, free compounds (natural products and synthetic analogs), cell viability 96 hours after treatment, read-out: MDA-MB-468 IC50): 3.39 nM; IC50 [3]: 0.00251 µM; IC50 [4]: 0.0085 µM"
"CC(=O)O[C@@H](C)/C=C\C(=O)N[C@@H]1C[C@H](C)[C@H](C/C=C(C)/C=C/[C@@H]2CC(C)=CC(=O)O2)O[C@@H]1C [#NP11, (2S,3Z)-5-{[(2R,3R,5S,6S)-2,5-dimethyl-6-{(2E,4E)-3-methyl-5-[(2S)-4-methyl-6-oxo-3,6-dihydro-2H-pyran-2-yl]penta-2,4-dien-1-yl}tetrahydro-2H-pyran-3-yl]amino}-5-oxopent-3-en-2-yl acetate]",1.55,0.00372,0.00367,0.00416,,,
CC(=O)O[C@@H](C)/C=C\C(=O)N[C@@H]1C[C@H](C)[C@H](C/C=C(C)/C=C/[C@H]2O[C@](C)(O)C[C@@](O)(CCl)[C@@H]2O)O[C@@H]1C [FR901463],,,,,efficacies in several xenograft tumor models,potent inhibitory activities,
CC(=O)O[C@@H](C)/C=C\C(=O)N[C@@H]1C[C@H](C)[C@H](C/C=C(C)/C=C/[C@H]2O[C@](C)(O)C[C@@]3(CO3)[C@@H]2O)O[C@@H]1C [FR901464],,,,,efficacies in several xenograft tumor models,potent inhibitory activities,inhibition of the spliceosome [5]: inhibit the spliceosome by interaction with SF3b
CO[C@]1(C)C[C@@]2(CO2)[C@H](O)[C@@H](/C=C/C(C)=C/C[C@@H]2O[C@H](C)[C@H](NC(=O)/C=C\[C@H](C)OC(C)=O)C[C@@H]2C)O1 [spliceostatin A],,,,,,,inhibition of the spliceosome [5]: inhibit the spliceosome by interaction with SF3b
FR901465,,,,,efficacies in several xenograft tumor models,potent inhibitory activities,
